{
  "source": "DBAASP",
  "experiment_in_all_cases": "≥ marks a high value that may be exact or a test limit, other limits are often not marked, values filed in µg/mL are converted to µM",
  "key": {"[1]": {"system": "Escherichia coli"}, "[2]": {"system": "Listeria innocua"}, "[3]": {"system": "Micrococcus luteus A270"}, "[4]": {"system": "Salmonella enterica subsp. enterica serovar Enteritidis"}, "[5]": {"system": "Acinetobacter baumannii ATCC 19606"}, "[6]": {"system": "Bordetella bronchiseptica CUN 11844-99"}, "[7]": {"system": "Escherichia coli ATCC 25922"}, "[8]": {"system": "Pseudomonas aeruginosa ATCC 27853"}, "[9]": {"system": "Pseudomonas aeruginosa CUN 4158-02"}, "[10]": {"system": "Staphylococcus aureus ATCC 25923"}, "[11]": {"system": "Staphylococcus aureus ATCC 43300"}, "[12]": {"system": "Staphylococcus aureus CUN 3792-99"}, "[13]": {"system": "Stenotrophomonas maltophilia CUN 3998-00"}, "[14]": {"system": "Aeromonas salmonicida NCIMB 1102"}, "[15]": {"system": "Bacillus subtilis IAM 1026"}, "[16]": {"system": "Escherichia coli JCM 1649"}, "[17]": {"system": "Photobacterium damselae subsp. piscicida Sp 9587"}, "[18]": {"system": "Salmonella typhimurium"}, "[19]": {"system": "Shewanella putrefaciens IAM 1509"}, "[20]": {"system": "Staphylococcus aureus IAM 1011"}, "[21]": {"system": "Vibrio anguillarum NCIMB 829"}, "[22]": {"system": "Vibrio parahaemolyticus Vp+1"}, "[23]": {"system": "Bacillus subtilis 168"}, "[24]": {"system": "Candida albicans F7-39/IDE99"}, "[25]": {"system": "Escherichia coli B"}, "[26]": {"system": "Micrococcus luteus CCM 144"}, "[27]": {"system": "Pseudomonas aeruginosa"}, "[28]": {"system": "Staphylococcus aureus"}, "[29]": {"system": "Bacillus subtilis C971"}, "[30]": {"system": "Corynebacterium xerosis C875"}, "[31]": {"system": "Enterococcus faecalis C625"}, "[32]": {"system": "Escherichia coli DC2"}, "[33]": {"system": "Escherichia coli UB1005"}, "[34]": {"system": "Pseudomonas aeruginosa H187"}, "[35]": {"system": "Pseudomonas aeruginosa H188"}, "[36]": {"system": "Salmonella typhimurium C587"}, "[37]": {"system": "Salmonella typhimurium C610"}, "[38]": {"system": "Staphylococcus aureus SAP 0017"}, "[39]": {"system": "Staphylococcus epidermidis ATCC 12228"}, "[40]": {"system": "Staphylococcus epidermidis C621"}},
  "note": "Several values for one entry are separate records, joined by “and”; a condition that tells them apart may be missing. Identical values can stand only once.",
  "data": [
    {"compound": "C[C@@H](O)[C@H](NC(=O)[C@H](CCCCN)NC(=O)[C@@H](NC(=O)[C@@H](NC(=O)[C@@H]1CCCN1C(=O)[C@@H](N)Cc1ccccc1)[C@@H](C)O)[C@@H](C)O)C(=O)N[C@@H](Cc1ccc(O)cc1)C(=O)N[C@@H](Cc1ccccc1)C(=O)N1CCC[C@H]1C(=O)N[C@@H](Cc1cnc[nH]1)C(=O)O", "note": "[FPTTKTYFPH]", "values": [
      {"measurement": "MIC", "setting": "[1]", "value": 9, "unit": "µM"},
      {"measurement": "MIC", "setting": "[2]", "value": 1, "unit": "µM"},
      {"measurement": "MIC", "setting": "[3]", "value": 1, "unit": "µM"},
      {"measurement": "MIC", "setting": "[4]", "value": 9, "unit": "µM"}
    ]},
    {"compound": "CC(C)C[C@H](NC(=O)[C@H](CCCN=C(N)N)NC(=O)[C@H](CCCN=C(N)N)NC(=O)[C@H](Cc1ccccc1)NC(=O)[C@H](CCCCN)NC(=O)[C@H](CCCCN)NC(=O)[C@H](CS)NC(=O)CN)C(=O)N[C@@H](CCCCN)C(=O)N[C@@H](Cc1c[nH]c2ccccc12)C(=O)N[C@@H](CCCCN)C(=O)N[C@@H](Cc1ccc(O)cc1)C(=O)N[C@@H](CCCCN)C(=O)NCC(=O)N[C@@H](CCCCN)C(=O)N[C@@H](Cc1ccccc1)C(=O)N[C@@H](Cc1c[nH]c2ccccc12)C(=O)N[C@@H](Cc1ccccc1)C(=O)N[C@@H](Cc1c[nH]c2ccccc12)C(=O)N[C@@H](CS)C(=O)NCC(N)=O", "note": "[GCKKFRRLKWKYKGKFWFWCG]", "values": [
      {"measurement": "MIC", "setting": "[5]", "value": 23.2, "unit": "µM"},
      {"measurement": "MIC", "setting": "[6]", "value": 1.45, "unit": "µM"},
      {"measurement": "MIC", "setting": "[7]", "value": 23.2, "unit": "µM"},
      {"measurement": "MIC", "setting": "[8]", "value": 93, "unit": "µM"},
      {"measurement": "MIC", "setting": "[9]", "value": "≥ 93", "unit": "µM"},
      {"measurement": "MIC", "setting": "[10]", "value": 11.6, "unit": "µM"},
      {"measurement": "MIC", "setting": "[11]", "value": 23.2, "unit": "µM"},
      {"measurement": "MIC", "setting": "[12]", "value": "≥ 372", "unit": "µM"},
      {"measurement": "MIC", "setting": "[13]", "value": "≥ 186", "unit": "µM"}
    ]},
    {"compound": "CC[C@H](C)[C@H](N)C(=O)NCC(=O)NCC(=O)N[C@H](C(=O)N[C@H](C(=O)N[C@@H](CO)C(=O)N[C@@H](Cc1ccccc1)C(=O)N[C@@H](Cc1ccccc1)C(=O)N[C@@H](CCCCN)C(=O)N[C@@H](CCCN=C(N)N)C(=O)N[C@@H](CC(C)C)C(=O)N[C@@H](Cc1ccccc1)C(=O)O)[C@@H](C)CC)[C@@H](C)CC", "note": "[IGGIISFFKRLF]", "values": [
      {"measurement": "MIC", "setting": "[14]", "value": 17.9, "unit": "µM"},
      {"measurement": "MIC", "setting": "[15]", "value": 4.47, "unit": "µM"},
      {"measurement": "MIC", "setting": "[16]", "value": 8.94, "unit": "µM"},
      {"measurement": "MIC", "setting": "[17]", "value": 4.47, "unit": "µM"},
      {"measurement": "MIC", "setting": "[18]", "value": 8.94, "unit": "µM"},
      {"measurement": "MIC", "setting": "[19]", "value": 2.24, "unit": "µM"},
      {"measurement": "MIC", "setting": "[20]", "value": 4.47, "unit": "µM"},
      {"measurement": "MIC", "setting": "[21]", "value": 4.47, "unit": "µM"},
      {"measurement": "MIC", "setting": "[22]", "value": 8.94, "unit": "µM"}
    ]},
    {"compound": "CC[C@H](C)[C@H](NC(=O)[C@H](C)NC(=O)CNC(=O)[C@H](Cc1c[nH]c2ccccc12)NC(=O)[C@H](CC(N)=O)NC(=O)[C@@H](N)CCCCN)C(=O)N[C@@H](CC(C)C)C(=O)N[C@@H](CCCCN)C(=O)N[C@@H](Cc1cnc[nH]1)C(=O)N[C@H](C(=O)N[C@H](C(=O)N[C@@H](CCCCN)C(N)=O)[C@@H](C)CC)[C@@H](C)CC", "note": "[KNWGAILKHIIK]", "values": [
      {"measurement": "MIC", "setting": "[23]", "value": 5.8, "unit": "µM"},
      {"measurement": "MIC", "setting": "[24]", "value": 9.8, "unit": "µM"},
      {"measurement": "MIC", "setting": "[25]", "value": 17.1, "unit": "µM"},
      {"measurement": "MIC", "setting": "[26]", "value": 9, "unit": "µM"},
      {"measurement": "MIC", "setting": "[27]", "value": 83.3, "unit": "µM"},
      {"measurement": "MIC", "setting": "[28]", "value": 100, "unit": "µM"}
    ]},
    {"compound": "CC[C@H](C)[C@H](NC(=O)[C@H](C)NC(=O)[C@H](CCCCN)NC(=O)[C@H](CC(C)C)NC(=O)[C@H](C)NC(=O)[C@@H](NC(=O)[C@H](Cc1cnc[nH]1)NC(=O)[C@H](CC(C)C)NC(=O)[C@@H](NC(=O)[C@@H](NC(=O)[C@H](CCCCN)NC(=O)[C@H](CC(C)C)NC(=O)[C@H](C)NC(=O)[C@H](CO)NC(=O)[C@H](CCCCN)NC(=O)[C@H](Cc1ccccc1)NC(=O)[C@@H](NC(=O)[C@H](CCCCN)NC(=O)[C@H](CC(C)C)NC(=O)[C@H](Cc1ccccc1)NC(=O)[C@H](CO)NC(=O)[C@H](CCCCN)NC(=O)[C@H](Cc1c[nH]c2ccccc12)NC(=O)[C@H](CCCCN)NC(C)=O)[C@@H](C)O)[C@@H](C)O)C(C)C)[C@@H](C)O)C(=O)N[C@@H](CO)C(=O)N[C@@H](CO)C(N)=O", "note": "[KWKSFLKTFKSALKTVLHTALKAISS]", "values": [
      {"measurement": "MIC", "setting": "[29]", "value": 1.09, "unit": "µM"},
      {"measurement": "MIC", "setting": "[30]", "value": 0.852, "unit": "µM"},
      {"measurement": "MIC", "setting": "[31]", "value": 10.9, "unit": "µM"},
      {"measurement": "MIC", "setting": "[7]", "value": 4, "unit": "µM"},
      {"measurement": "MIC", "setting": "[32]", "value": 1.7, "unit": "µM"},
      {"measurement": "MIC", "setting": "[33]", "value": 2.18, "unit": "µM"},
      {"measurement": "MIC", "setting": "[8]", "value": 8, "unit": "µM"},
      {"measurement": "MIC", "setting": "[34]", "value": 4.33, "unit": "µM"},
      {"measurement": "MIC", "setting": "[35]", "value": 10.9, "unit": "µM"},
      {"measurement": "MIC", "setting": "[36]", "value": 10.9, "unit": "µM"},
      {"measurement": "MIC", "setting": "[37]", "value": 3.44, "unit": "µM"},
      {"measurement": "MIC", "setting": "[10]", "value": "10.9 µM and 8 µM"},
      {"measurement": "MIC", "setting": "[38]", "value": 8.66, "unit": "µM"},
      {"measurement": "MIC", "setting": "[39]", "value": 2, "unit": "µM"},
      {"measurement": "MIC", "setting": "[40]", "value": 2.73, "unit": "µM"}
    ]},
    {"compound": "CC(C)C[C@H](NC(=O)[C@@H](N)C(C)C)C(=O)N[C@@H](CO)C(=O)N[C@@H](C)C(=O)N[C@@H](C)C(=O)N[C@@H](CC(=O)O)C(=O)N[C@@H](CCCCN)C(=O)NCC(=O)N[C@@H](CC(N)=O)C(=O)N[C@H](C(=O)N[C@@H](CCCCN)C(=O)N[C@@H](C)C(=O)N[C@@H](C)C(=O)N[C@@H](Cc1c[nH]c2ccccc12)C(=O)NCC(=O)N[C@@H](CCCCN)C(=O)N[C@H](C(=O)NCC(=O)NCC(=O)N[C@@H](Cc1cnc[nH]1)C(=O)N[C@@H](C)C(=O)N[C@@H](C)C(=O)N[C@@H](CCC(=O)O)C(=O)N[C@@H](Cc1ccc(O)cc1)C(=O)NCC(=O)N[C@@H](C)C(=O)N[C@@H](CCC(=O)O)C(=O)O)C(C)C)C(C)C", "note": "[VLSAADKGNVKAAWGKVGGHAAEYGAE]", "values": [
      {"measurement": "MIC", "setting": "[1]", "value": 54, "unit": "µM"},
      {"measurement": "MIC", "setting": "[2]", "value": 27, "unit": "µM"},
      {"measurement": "MIC", "setting": "[3]", "value": "≥ 38", "unit": "µM"},
      {"measurement": "MIC", "setting": "[4]", "value": "≥ 38", "unit": "µM"}
    ]}
  ]
}
